Experimental data reported in ChEMBL document CHEMBL1152335, “NMR strategy for unraveling structures of bioactive sponge-derived oxy-polyhalogenated diphenyl ethers” (J Nat Prod, 2009).

target: Induced myeloid leukemia cell differentiation protein Mcl-1 (Homo sapiens, UniProt Q07820); experiment: Inhibition of Bak binding to Mcl-1 by FRET assay
Sequence (Q07820 whole entry): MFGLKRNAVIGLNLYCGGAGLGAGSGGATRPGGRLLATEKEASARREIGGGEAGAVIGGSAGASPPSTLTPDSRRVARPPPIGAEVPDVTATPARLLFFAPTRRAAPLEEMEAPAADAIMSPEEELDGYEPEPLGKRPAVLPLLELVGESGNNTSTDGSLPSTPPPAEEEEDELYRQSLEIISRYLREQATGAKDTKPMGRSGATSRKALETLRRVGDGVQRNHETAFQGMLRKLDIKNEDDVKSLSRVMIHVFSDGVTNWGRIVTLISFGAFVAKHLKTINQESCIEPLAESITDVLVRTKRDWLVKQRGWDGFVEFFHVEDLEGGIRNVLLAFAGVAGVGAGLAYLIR

Point of comparison: `Oc1cc(Br)cc(Br)c1Oc1ccc(Br)cc1Br`, IC50 4.78 µM. Against it:
- Oc1c(Br)cc(Br)cc1Oc1c(Br)cc(Br)c(Br)c1O — higher, > 16.8 µM
- Oc1cc(Br)c(Br)c(Br)c1Oc1cc(Br)cc(Br)c1O — higher, > 16.8 µM
- Oc1c(Br)cc(Br)cc1Oc1c(O)c(Br)c(Br)c(Br)c1Br — higher, > 14.8 µM
- COc1c(Br)c(Br)cc(Br)c1Oc1cc(Br)cc(Br)c1O — higher, > 16.4 µM
- Oc1c(Br)c(Br)cc(Br)c1Oc1ccc(Br)cc1Br — higher, > 17.2 µM
- Oc1c(Br)cc(Br)cc1Oc1c(O)c(Br)cc(Br)c1Br — higher, > 16.8 µM
- Oc1c(Br)cc(Br)cc1Oc1cc(Br)c(Br)c(Br)c1O — higher, > 16.8 µM
